# Columns and labels:
# Assay type in all cases: cell-based, human
# [1] = test system: TLR (TLR2, TLR4, TLR5, TLR9) and NOD (NOD1, NOD2) family members; experiment: IL-8 production with TLR and NOD ligands plus suboptimal calcium flux agonist (FIGS. 3A-3E); details: suboptimal doses: 20 nM thapsigargin, 316 nM A23187, 1 μM ionomycin, 10 μM cyclopiazonic acid, 31.6 μM DBHQ
# Procedure: To investigate if that observation was also true for other pattern recognition receptors, and especially for TLR and NOD receptors and other ligands, the inventors tested numerous TLR and NOD receptors and various ligands.
# The doses used in this experiment were 20 nM for thapsigargin, 316 nM for A23187, 1 μM for ionomycin, 10 μM for cyclopiazonic acid, and 31.6 μM for DBHQ.
# Thus, a clear pattern of adjuvant activity of calcium flux agonists on the immune response, and especially on IL-8 production and NF-κB signaling is evident where the immune response is associated with a TLR- or NOD-mediated event.
# NF-κB THP-1 cells = experiment: NF-κB luciferase reporter synergy with TLR2 ligand and effect of Ca2+ modulating compounds (FIG. 4); details: FIG. 4; calcium flux agonist plus TLR ligand
# Procedure: For example, human promonocytic THP-1 cells were incubated in the presence or absence of a suboptimal dose of the TLR2 ligand Pam2CSK4 and compared to similarly treated cells which also received suboptimal doses of ionophore (here: A23187 and ionomycin). […] In another example, NF-κB THP-1 cells (a THP-1-derived transfectant line harboring an NF-κB-driven luciferase expression cassette) were cultivated in the presence or absence of a suboptimal dose of the TLR2 ligand Pam2CSK4 and compared to similarly treated cells that also received suboptimal doses of various SERCA inhibitors.
# The inventors further investigated if the nature of calcium flux was of significance as increased intracellular calcium may have different origins. To that effect, the inventors used various calcium signaling modulators to investigate the nature of the calcium flux and contribution. As can be readily taken from the data shown, extracellular calcium flux into the cell was critical for synergistic amplification of calcium signaling. More specifically, FIG. 4 illustrates the effects of different Ca^2+ modulating compounds on synergy with respect to NF-κB activation.
# [2] = test system: κB-LUC THP-1 reporter cells; experiment: κB-LUC THP-1 reporter response to S. aureus conditioned/spent media (FIGS. 5B-5E)
# Excerpt: Briefly, a culture of logarithmically dividing S. aureus was washed three times with RPMI 1640 (Cellgro). Concurrently, THP-1 κB-LUC THP-1's (THP-1 cells containing the stable integration of a NF-κB luciferase reporter gene) cultured in RPMI 1640 (Cellgro) supplemented with 10% FBS (Thermo HyClone, Waltham Mass.) and 1% penicillin-streptomycin-fungizone (Thermo HyClone) were washed three times with RPMI 1640 (Cellgro) and transferred to the bottom compartment of a 24-well 0.4 μm cutoff transwell plate (Corning) at a concentration of 1.2 million/mL. Dilutions of the washed S. aureus culture were then added to the top chamber of the transwell system at the indicated initial multiplicities of infection (MOI). The cells were incubated for 18 hours at 37° C. at which time aliquots of 60,000 cells were transferred to wells in a 384-well white bottom plate (Thermo). To evaluate luciferase gene expression, Bright-Glo Luciferase Assay Reagent (Promega) was added to each well and the plates were analyzed for luciferase activity using the Perkin Elmer TopCount NXT system (Perkin Elmer).
# To determine whether the recognition of S. aureus-produced products could be further augmented through modulation of calcium flux, κB-LUC THP-1 reporter cells were incubated in the presence of a 1:100 dilution (V/V) of sterile filtered S. aureus conditioned (i.e. spent) or unused sterile media and treated with a suboptimal dose (20 nM) of thapsigargin or dimethyl sulfoxide (DMSO) vehicle control as described above. Briefly, conditioned media was produced by culturing S. aureus in RPMI with 10% fetal bovine serum overnight in a shaking incubator at 37° C. following which the bacteria were pelleted by centrifugation and the supernatants filter-sterilized using a 0.2 μm filter (VWR Radnor PA). The κB-LUC THP-1 cells were incubated in the presence of the conditioned/spent media for 18 hours prior to luciferase assay as described above.
Structure (SMILES),effect on IL-8 production with TLR and NOD ligands [1],effect of Ca2+ modulating compound on synergy with respect to NF-κB activation (NF-κB THP-1 cells),effect on calcium flux-induced synergy [2]
"CC(C)(C)c1cc(O)c(C(C)(C)C)cc1O [DBHQ, 2,5-di-tert-butylhydroquinone]",synergistic effect,,
O=C(O)CN(CCOCCOCCN(CC(=O)O)CC(=O)O)CC(=O)O [EGTA],,reduces synergistic signal down to levels in line with what is achieved by TLR ligand alone,inhibited
CN([C@@H](Cc1ccc(OS(=O)(=O)c2cccc3cnccc23)cc1)C(=O)N1CCN(c2ccccc2)CC1)S(=O)(=O)c1cccc2cnccc12 [KN-62],,does not alter reporter gene expression levels,

# From patent publication US9750805B2, “Calcium flux agonists and methods therefor” (Nant Holdings IP, LLC, priority 2012, dated 2017)
